One block for each compound: values may come before it.
Test system: 323965-272-R-J2-PDC complex spheroid growth, % test/control
Assay: Anticancer human tumor 323965-272-R-J2-PDC patient-derived pancreatic carcinoma cell line growth inhibition [Asc]
Conditions: for IC50: curve of first compound; for viability, T/C: stronger effect = lower value
How it was run: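 Complex spheroids combining tumor cells with HUVEC endothelial cells and human MSCs, at 37 degrees C, 5% CO2; agents tested alone or combined, half-log dilutions from at or near clinical Cmax, or 10 microM if Cmax unknown.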

[1] = second compound 0.00316 µM, first compound 0.0316 µM
[2] = second compound 0.00316 µM, first compound 0.1 µM
[3] = second compound 0.00316 µM, first compound 0.316 µM
[4] = second compound 0.00316 µM, first compound 1 µM
[5] = second compound 0.00316 µM, first compound 3.16 µM
[6] = second compound 0.00316 µM, first compound 10 µM
[7] = second compound 0.01 µM, first compound 0.0316 µM
[8] = second compound 0.01 µM, first compound 0.1 µM
[9] = second compound 0.01 µM, first compound 0.316 µM
[10] = second compound 0.01 µM, first compound 1 µM
[11] = second compound 0.01 µM, first compound 3.16 µM
[12] = second compound 0.01 µM, first compound 10 µM
[13] = second compound 0.0316 µM, first compound 0.0316 µM
[14] = second compound 0.0316 µM, first compound 0.1 µM
[15] = second compound 0.0316 µM, first compound 0.316 µM
[16] = second compound 0.0316 µM, first compound 1 µM
[17] = second compound 0.0316 µM, first compound 3.16 µM
[18] = second compound 0.0316 µM, first compound 10 µM
[19] = second compound 0.1 µM, first compound 0.0316 µM
[20] = second compound 0.1 µM, first compound 0.1 µM
[21] = second compound 0.1 µM, first compound 0.316 µM
[22] = second compound 0.1 µM, first compound 1 µM
[23] = second compound 0.1 µM, first compound 3.16 µM
[24] = second compound 0.1 µM, first compound 10 µM
[25] = second compound 0.316 µM, first compound 0.0316 µM
[26] = second compound 0.316 µM, first compound 0.1 µM
[27] = second compound 0.316 µM, first compound 0.316 µM
[28] = second compound 0.316 µM, first compound 1 µM
[29] = second compound 0.316 µM, first compound 3.16 µM
[30] = second compound 0.316 µM, first compound 10 µM
[31] = second compound 1 µM, first compound 0.0316 µM
[32] = second compound 1 µM, first compound 0.1 µM
[33] = second compound 1 µM, first compound 0.316 µM
[34] = second compound 1 µM, first compound 1 µM
[35] = second compound 1 µM, first compound 3.16 µM
[36] = second compound 1 µM, first compound 10 µM
[37] = second compound 0.00316 µM, first compound 0.00949 µM
[38] = second compound 0.00316 µM, first compound 0.03 µM
[39] = second compound 0.00316 µM, first compound 0.0949 µM
[40] = second compound 0.00316 µM, first compound 0.3 µM
[41] = second compound 0.00316 µM, first compound 0.949 µM
[42] = second compound 0.00316 µM, first compound 3 µM
[43] = second compound 0.01 µM, first compound 0.00949 µM
[44] = second compound 0.01 µM, first compound 0.03 µM
[45] = second compound 0.01 µM, first compound 0.0949 µM
[46] = second compound 0.01 µM, first compound 0.3 µM
[47] = second compound 0.01 µM, first compound 0.949 µM
[48] = second compound 0.01 µM, first compound 3 µM
[49] = second compound 0.0316 µM, first compound 0.00949 µM
[50] = second compound 0.0316 µM, first compound 0.03 µM
[51] = second compound 0.0316 µM, first compound 0.0949 µM
[52] = second compound 0.0316 µM, first compound 0.3 µM
[53] = second compound 0.0316 µM, first compound 0.949 µM
[54] = second compound 0.0316 µM, first compound 3 µM
[55] = second compound 0.1 µM, first compound 0.00949 µM
[56] = second compound 0.1 µM, first compound 0.03 µM
[57] = second compound 0.1 µM, first compound 0.0949 µM
[58] = second compound 0.1 µM, first compound 0.3 µM
[59] = second compound 0.1 µM, first compound 0.949 µM
[60] = second compound 0.1 µM, first compound 3 µM
[61] = second compound 0.316 µM, first compound 0.00949 µM
[62] = second compound 0.316 µM, first compound 0.03 µM
[63] = second compound 0.316 µM, first compound 0.0949 µM
[64] = second compound 0.316 µM, first compound 0.3 µM
[65] = second compound 0.316 µM, first compound 0.949 µM
[66] = second compound 0.316 µM, first compound 3 µM
[67] = second compound 1 µM, first compound 0.00949 µM
[68] = second compound 1 µM, first compound 0.03 µM
[69] = second compound 1 µM, first compound 0.0949 µM
[70] = second compound 1 µM, first compound 0.3 µM
[71] = second compound 1 µM, first compound 0.949 µM
[72] = second compound 1 µM, first compound 3 µM
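Note: compound exposure lasted 7 days starting three days after spheroid seeding.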
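Throughout, for viability, T/C: 100% = DMSO vehicle control wells with viability set relative to vehicle.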

IC50 (second compound 0.00316 µM): > 10 µM
IC50 (second compound 0.01 µM): > 10 µM
IC50 (second compound 0.0316 µM): > 10 µM
IC50 (second compound 0.1 µM): > 10 µM
IC50 (second compound 0.316 µM): > 10 µM
IC50 (second compound 1 µM): > 10 µM
Structure (SMILES): C#Cc1c(F)ccc2cc(O)cc(-c3ncc4c(N5CC6CCC(C5)N6)nc(OCC56CCCN5CC(F)C6)nc4c3F)c12 (stereo not drawn) + CNC(C)C(=O)NC1CN(S(=O)(=O)c2cccc(S(=O)(=O)N3CCC4CCC(C(=O)NC(c5ccccc5)c5ccccc5)N4C(=O)C(NC(=O)C(C)NC)C3)c2)CCC2CCC(C(=O)NC(c3ccccc3)c3ccccc3)N2C1=O
viability, T/C [1]: 109%
viability, T/C [2]: 92.7%
viability, T/C [3]: 94.1%
viability, T/C [4]: 94.9%
viability, T/C [5]: 70.2%
viability, T/C [6]: 61.8%
viability, T/C [7]: 117%
viability, T/C [8]: 102%
viability, T/C [9]: 96.4%
viability, T/C [10]: 87.4%
viability, T/C [11]: 74.2%
viability, T/C [12]: 63.2%
viability, T/C [13]: 127%
viability, T/C [14]: 102%
viability, T/C [15]: 106%
viability, T/C [16]: 89.7%
viability, T/C [17]: 70.4%
viability, T/C [18]: 58.3%
viability, T/C [19]: 101%
viability, T/C [20]: 96.6%
viability, T/C [21]: 95.4%
viability, T/C [22]: 91.2%
viability, T/C [23]: 62.3%
viability, T/C [24]: 70.2%
viability, T/C [25]: 101%
viability, T/C [26]: 95.1%
viability, T/C [27]: 96.5%
viability, T/C [28]: 82.4%
viability, T/C [29]: 74%
viability, T/C [30]: 65.4%
viability, T/C [31]: 90.9%
viability, T/C [32]: 105%
viability, T/C [33]: 92.9%
viability, T/C [34]: 91%
viability, T/C [35]: 66.8%
viability, T/C [36]: 53.2%

IC50 (second compound 0.00316 µM): 3.55 µM
IC50 (second compound 0.01 µM): 3.55 µM
IC50 (second compound 0.0316 µM): 3.7 µM
IC50 (second compound 0.1 µM): 3.45 µM
IC50 (second compound 0.316 µM): 3.72 µM
IC50 (second compound 1 µM): 3.38 µM
Structure (SMILES): C=C(F)C(=O)N1CCN(c2nc(OCC3CCCN3C)nc3c2CCN(c2cccc4cccc(Cl)c24)C3)CC1CC#N (stereo not drawn) + CNC(C)C(=O)NC1CN(S(=O)(=O)c2cccc(S(=O)(=O)N3CCC4CCC(C(=O)NC(c5ccccc5)c5ccccc5)N4C(=O)C(NC(=O)C(C)NC)C3)c2)CCC2CCC(C(=O)NC(c3ccccc3)c3ccccc3)N2C1=O
viability, T/C [1]: 54.3%
viability, T/C [2]: 48.5%
viability, T/C [3]: 50.5%
viability, T/C [4]: 56.1%
viability, T/C [5]: 67.9%
viability, T/C [6]: 0.23%
viability, T/C [7]: 62.3%
viability, T/C [8]: 44.2%
viability, T/C [9]: 48.8%
viability, T/C [10]: 56.6%
viability, T/C [11]: 66.3%
viability, T/C [12]: 0.24%
viability, T/C [13]: 55.8%
viability, T/C [14]: 54.8%
viability, T/C [15]: 47.1%
viability, T/C [16]: 55.4%
viability, T/C [17]: 76%
viability, T/C [18]: 0.21%
viability, T/C [19]: 52%
viability, T/C [20]: 46.7%
viability, T/C [21]: 48.5%
viability, T/C [22]: 53.4%
viability, T/C [23]: 69.9%
viability, T/C [24]: 0.25%
viability, T/C [25]: 55.5%
viability, T/C [26]: 53.6%
viability, T/C [27]: 59.5%
viability, T/C [28]: 53.8%
viability, T/C [29]: 68.3%
viability, T/C [30]: 0.21%
viability, T/C [31]: 56.8%
viability, T/C [32]: 49.1%
viability, T/C [33]: 38.6%
viability, T/C [34]: 56%
viability, T/C [35]: 65%
viability, T/C [36]: 0.22%

IC50 (second compound 0.00316 µM): > 3 µM
IC50 (second compound 0.01 µM): > 3 µM
IC50 (second compound 0.0316 µM): > 3 µM
IC50 (second compound 0.1 µM): > 3 µM
IC50 (second compound 0.316 µM): > 3 µM
IC50 (second compound 1 µM): > 3 µM
Structure (SMILES): CCN1C(C(=O)NC23CCC(C(=O)O)(CC2)CC3)C(c2cccc(Cl)c2F)C2(C(=O)Nc3cc(Cl)ccc32)C12CCCCC2 (stereo not drawn) + CNC(C)C(=O)NC1CN(S(=O)(=O)c2cccc(S(=O)(=O)N3CCC4CCC(C(=O)NC(c5ccccc5)c5ccccc5)N4C(=O)C(NC(=O)C(C)NC)C3)c2)CCC2CCC(C(=O)NC(c3ccccc3)c3ccccc3)N2C1=O
viability, T/C [37]: 107%
viability, T/C [38]: 93.6%
viability, T/C [39]: 98.2%
viability, T/C [40]: 93.1%
viability, T/C [41]: 105%
viability, T/C [42]: 89.3%
viability, T/C [43]: 110%
viability, T/C [44]: 97.8%
viability, T/C [45]: 101%
viability, T/C [46]: 93.5%
viability, T/C [47]: 97%
viability, T/C [48]: 89.7%
viability, T/C [49]: 99.9%
viability, T/C [50]: 99.1%
viability, T/C [51]: 105%
viability, T/C [52]: 101%
viability, T/C [53]: 92.2%
viability, T/C [54]: 82.7%
viability, T/C [55]: 116%
viability, T/C [56]: 97.7%
viability, T/C [57]: 97.8%
viability, T/C [58]: 104%
viability, T/C [59]: 87.5%
viability, T/C [60]: 83.9%
viability, T/C [61]: 93%
viability, T/C [62]: 81.6%
viability, T/C [63]: 94.8%
viability, T/C [64]: 93.3%
viability, T/C [65]: 95.7%
viability, T/C [66]: 86.2%
viability, T/C [67]: 90.8%
viability, T/C [68]: 87.6%
viability, T/C [69]: 94.7%
viability, T/C [70]: 85.5%
viability, T/C [71]: 89.5%
viability, T/C [72]: 76.6%

IC50 (second compound 0.00316 µM): 1 µM
IC50 (second compound 0.01 µM): > 3 µM
IC50 (second compound 0.0316 µM): > 3 µM
IC50 (second compound 0.1 µM): 1.48 µM
IC50 (second compound 0.316 µM): 1.52 µM
IC50 (second compound 1 µM): 0.967 µM
Structure (SMILES): Cc1nc(N2CCC3(CC2)COC(C)C3N)c(CO)nc1Sc1ccnc(N)c1Cl (stereo not drawn) + CNC(C)C(=O)NC1CN(S(=O)(=O)c2cccc(S(=O)(=O)N3CCC4CCC(C(=O)NC(c5ccccc5)c5ccccc5)N4C(=O)C(NC(=O)C(C)NC)C3)c2)CCC2CCC(C(=O)NC(c3ccccc3)c3ccccc3)N2C1=O
viability, T/C [37]: 109%
viability, T/C [38]: 84.6%
viability, T/C [39]: 71.8%
viability, T/C [40]: 55.7%
viability, T/C [41]: 52.4%
viability, T/C [42]: 43.9%
viability, T/C [43]: 99.4%
viability, T/C [44]: 94.3%
viability, T/C [45]: 66%
viability, T/C [46]: 62%
viability, T/C [47]: 52.6%
viability, T/C [48]: 47.7%
viability, T/C [49]: 110%
viability, T/C [50]: 97.4%
viability, T/C [51]: 80%
viability, T/C [52]: 58.1%
viability, T/C [53]: 57.9%
viability, T/C [54]: 49%
viability, T/C [55]: 93.9%
viability, T/C [56]: 96.6%
viability, T/C [57]: 80.9%
viability, T/C [58]: 65.6%
viability, T/C [59]: 51.2%
viability, T/C [60]: 47.4%
viability, T/C [61]: 97.7%
viability, T/C [62]: 85%
viability, T/C [63]: 86.7%
viability, T/C [64]: 60.5%
viability, T/C [65]: 58.2%
viability, T/C [66]: 42.3%
viability, T/C [67]: 84.8%
viability, T/C [68]: 80.4%
viability, T/C [69]: 71.9%
viability, T/C [70]: 62%
viability, T/C [71]: 50.1%
viability, T/C [72]: 39.8%
